The values below come from patent US12377077B2, “Methods and formulations to treat mitochondrial dysfunction” (The Board of Trustees of the Leland Stanford Junior …, priority 2018, dated 2025).

Data set [1] concerns COX10-deficient fibroblasts. Put plainly: Cellular morphology by phase-contrast microscopy. It is filed as cell-based, human. Conditions: vs untreated. The source says: (§1) Fibroblasts in tissue culture were visualized by phase-contrast microscopy with a Leica DM IRB microscope at ×10 magnification, and images were taken with the Hamamatsu ORCA-ER camera.
Data set [2] concerns NGLY1 deficient fibroblasts. Kind of data set: Cellular morphology by phase-contrast microscopy. To be noted: NGLY-1 deficient fibroblasts; vs untreated. It is filed as cell-based, human.
Source text: as §1

The test system of data set [3] is SURF1-deficient fibroblasts. Kind of data set: Cellular morphology by phase-contrast microscopy. It is filed as cell-based, human. Conditions: vs DMSO.
Source text: as §1

The test system of data set [4] is POLG deficient fibroblasts. Put plainly: ROS levels, CellROX Deep Red Flow Cytometry Assay. The format is cell-based, human. To be noted: PT1 72 hrs vs DMSO. The procedure: (§2) Methods: SURF1, POLG, and NGLY1 patient cells were supplemented with PT1 or DMSO (untreated control) for 48 hrs (n=3) and ATP levels measured by the CellTiter-Glo ATP Assay or for 72 hrs (n=3) and ROS levels were measured by the CellROX Deep Red Flow Cytometry Assay. Results were normalized to total protein concentration. Data are represented as the mean±standard error of the mean. Statistical significance was measured to p<0.05.

For data set [5], the system named is SURF1 deficient fibroblasts. Put plainly: ROS levels, CellROX Deep Red Flow Cytometry Assay. Conditions: PT1 72 hrs vs DMSO. It is filed as cell-based, human. The protocol:
as §2

Data set [6] concerns NGLY1 deficient fibroblasts. Put plainly: ROS levels, CellROX Deep Red Flow Cytometry Assay. It is filed as cell-based, human. Conditions: PT1 72 hrs vs DMSO. The procedure:
as §2
(In general: Flow cytometry measures light scatter and fluorescence of single cells or particles in a stream.)

For data set [7], the system named is pAMPK. Kind of data set: pAMPK western blot time course in SURF1 deficient fibroblasts. It is filed as cell-based, human. The procedure:
Methods: Western blotting was performed to identify pAMPK levels in cells treated with PT1. Cells were lysed with RIPA buffer supplemented with Na-Orthovanadate, PMSF, and Protease Inhibitor cocktail. Whole cell extracts were fractionated by SDS-PAGE and transferred to a polyvinylidene difluoride membrane using a transfer apparatus according to the manufacturer's protocols (Bio-Rad). After incubation with 5% nonfat milk in TBST (10 mM Tris, pH 8.0, 150 mM NaCl, 0.5% Tween 20) for 60 min, the membrane was washed once with TBST and incubated with antibodies against AMPK (1:1,000), pAMPK (1:1,000), actin (1:10,000) at 4° C. overnight. Membranes were washed three times for 5 min and incubated with a 1:10,000 dilution of horseradish peroxidase-conjugated anti-mouse or anti-rabbit antibodies for 2 h. Blots were washed with TBST three times and developed with the ECL system (Thermo Scientific) according to the manufacturer's protocols.

Data set [8] concerns CI-deficient fibroblasts. Put plainly: Cell viability by Calcein AM in mitochondrial stressor media. It is filed as cell-based, human. Conditions: FIG. 2C. The protocol:
(§3) Fibroblasts previously derived from four patients with primary mitochondrial disease (Surf1, Complex I, Cox10, Polg), three patients with NGLY1 deficiency and four normal controls were used for the study. All samples were obtained with informed consent and approved by the Stanford IRB. Fibroblasts were maintained in DMEM medium containing 8.3 mM glucose and supplemented with 10% fetal bovine serum (FBS)(Fisher Scientific), 1% Penicillin-Streptomycin (10,000 U/mL)(Life Technologies), 1% glutaMAX (Life Technologies), 1% uridine (5 mg/ml) and 1% pyruvate (11 mg/ml) at 37° C., 5% CO2.
(§4) For the screening of various compounds, 15×10^3 cells/500 ul media were seeded in quadruplets on 24 well microtiter plates. The following day, the medium was removed, wells washed with PBS and replaced with a mitochondrial stressor media containing DMEM, 1% Penicillin-Streptomycin (10,000 U/mL)(Life Technologies), 10% FCS (Fisher Scientific), 1 mM Galactose (Sigma Aldrich), and 25 μM sodium azide with or without the following compounds: 1 mM AICAR (Medchem Express), 1 mM Metformin (Sigma Aldrich), 100 μM PT1 (Santa Cruz Biotechnology), 100 μM A-769662 (Medchem Express), 100 μM C24 (Medchem Express). Following treatment with the various compounds, tissue cultures were analyzed for growth, oxygen consumption rate, and ATP levels.
(§5) Methods: Cell growth was measured by a fluorometric method using Calcein AM (Anaspec). Mitochondrial stressor media was removed, wells washed with PBS and then incubated with 500 ul/well of 800 nM Calcein AM in PBS for 30 min at 37 C, 5% CO2. Cell viability was measured by values obtained using a 485 nm excitation with the Flouroskan Ascent Microplate Fluorometer (Thermo Scientific).

In data set [9] the test system is NGLY1 deficient fibroblasts. The description is as above. It is filed as cell-based, human. To be noted: NGLY-1 deficient fibroblasts from three individuals; +PT1 vs −PT1; FIG. 2E. The protocol:
as §3, §4, §5

The test system of data set [10] is sodium iodate (SI) induced AMD model. Put plainly: Sodium iodate (SI) induced AMD model: funduscopy, H&E retinal sections, ONL thickness, ERG. It is filed as in vivo, mice. The procedure:
Methods: To generate an AMD model, mice were treated with 100 mg/kg of PT1 (or vehicle) 24 hrs and 12 hrs prior to SI (or vehicle) treatment, then treated every 24 hrs for 3 days post-SI. Both PT1 and SI were delivered by intraperitoneal (IP) injections and animals were phenotyped 3 days post-SI administration. Mice were anesthetized and their pupils dilated using 1% atropine sulfate, 2.5% phenylephrine hydrochloride, and 0.5% proparacaine hydrochloride. Funduscopy was performed using the Micron III small animal retinal imaging AD camera (Phoenix Research Laboratories, INC). Retinal function was evaluated by recording of dark- and light-adapted ERG (Espion E2 System, Diagnosys LLC). Mice were dark adapted overnight before ERG recording, and all procedures were performed in the dark or under dim red light. Mice were anesthetized and their pupils dilated as described above. For the ERG recordings, electrodes were placed on the center of cornea. A ground needle electrode was placed in the base of the tail, and reference needle electrode was placed subdermally between the eyes. The a-wave amplitude was measured from the baseline to the trough of the a-wave, and b-wave amplitude was measured from the trough of the a-wave to the peak of the b-wave.

The test system of data set [11] is ischemic stroke model. Kind of data set: Ischemic stroke model, transient middle cerebral artery occlusion, TTC staining. It is filed as in vivo, mice. To be noted: PT1 100 mg/kg IP vs vehicle. The procedure: Methods: To generate an ischemic stroke model, ischemic lesions were induced by transiently occluding the middle cerebral artery for 45 minutes, followed by reperfusion. Mice were then injected intraperitoneally with either 100 mg/kg of PT1 or vehicle in two doses, 1 hour and 24 hours post-occlusion, and sacrificed one hour later for terminal tissue collection. Isolated brains were placed in cold saline for 20 minutes, sliced in seven coronal slices (2 mm thick), and stained in a 1.0% 2,3,5-triphenyltetrazolium chloride (TTC) solution in saline at 37° C. for 30 minutes. The stained brain tissues were fixed in 10% formalin in phosphate-buffered saline. The images were captured using a CCD camera (Panasonic Corporation, Japan) and the unstained damaged areas were defined as infarcted tissue and were quantified using Image Pro Plus 4.1 software (Media Cybernetics, Silver Spring, MD).

Entries after “also recorded” stand apart in the source; their conditions may differ. Bounds are passed on as bounds.

Turning to `Cc1cc(-c2ccc(C=C3SC(=S)N(c4ccc(Cl)c(C(=O)O)c4)C3=O)o2)c([N+](=O)[O-])cc1C` [PT1], the cellular morphology entry is “cell morphology improved” in [1], “cell morphology improved” in data set [2] and “improved cellular morphology; also recorded: cell morphology improved” in data set [3]. Also, the “reduction in ROS levels” value in [4] was found to be 15%; in data set [5] it was 10%; in data set [6] it was 18%. Further, the “time of peak pAMPK levels post PT1 treatment” value in data set [7] worked out at 24 hours. The “time of return of pAMPK levels to baseline” value in [7] is on record as 48 hours. In addition, the “time by which pAMPK levels increase post PT1 treatment” value in [7] (pAMPK normalized to actin) is no more than 2 hours. In addition, the survival / viability result in data set [8] was “improves survival; also recorded: significantly improved survival”. Further, in [9], the improvement in viability was ≤ 60% and up to 60%. In addition, the “funduscopy, signs of retinal degeneration (white deposits)” value in [10] (+SI, +PT1 vs +SI, 100 mg/kg IP, FIG. 9A, 100 mg/kg) is listed as “improved signs of retinal degeneration; also recorded: Fewer white deposits”. Moreover, in [10] (+SI, +PT1 vs +SI, FIG. 9B), the “H&E retinal sections: ONL thinning” value is given as “protection against ONL thinning; also recorded: protects against ONL thinning”. Also, the “H&E retinal sections: melanin debris” value in data set [10] (+SI, +PT1 vs +SI, FIG. 9B) is given as “decreases melanin debris”. Also, the “H&E retinal sections: photoreceptor IS/OS morphology” value in data set [10] (+SI, +PT1 vs +SI, FIG. 9B) is reported as “prevents alterations in photoreceptor IS/OS morphology”. Besides, the ONL thickness result in [10] (+SI, +PT1 vs +SI, FIG. 9C) is recorded as “greater thickness; also recorded: significantly improved”. In addition, the “electroretinography, rod responses (scotopic a-wave and b-wave)” value in [10] (+SI, +PT1 vs +SI, FIG. 9D) is on record as “improved electrical response; also recorded: significantly increased rod responses”. Moreover, in data set [10] (−SI, +PT1 vs −SI), the “ONL thickness, PT1 treatment alone” value is recorded as “does not alter ONL thickness”. In addition, the “funduscopy, PT1 treatment alone” value in data set [10] (−SI, +PT1 vs −SI) is “similar, normal tissue; also recorded: does not alter funduscopy results”. Also, in [11] (FIG. 10A), the “percent of infarct tissue in brain” value is “marked improvement”. Moreover, the “infarcted regions in TTC-stained brain slices” value in data set [11] (FIGS. 10B-10C, 100 mg/kg) was “much lower amounts of ischemic tissue; also recorded: reduction in size of the infarcted regions”.
